Data taken from patent US10174016B2 (BAYER AKTIENGESELLSCHAFT, priority 2014, dated 2019).
Like-named read-outs stand apart in the source and are kept apart here.

What was measured:
human P2X3 receptor = human P2X3 receptor (Homo sapiens (Human), UniProt P56373); assay: Intracellular calcium measurement (FLIPR, Fluo-4) of antagonist activity at human P2X3 receptors; assay type: cell-based; conditions: read-out: hP2X3 IC50
Procedure, shortened: (§1)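 Antagonism quantified from peak calcium fluorescence (Fluo-4, FLIPR, 90 sec read) evoked by EC80 α,β-Me-ATP, after a 30 min, 37° C. compound pretreatment in 1% DMSO. Human P2X3- or P2X2/3-expressing cells used; triplicate means fitted for IC50, percent maximal inhibition and Hill coefficient.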

human P2X2/3 receptor = human P2X2/3 receptor (Homo sapiens (Human), UniProt P56373+Q9UBL9); assay: Intracellular calcium measurement (FLIPR, Fluo-4) of antagonist activity at human P2X2/3 receptors; assay type: cell-based
Chain of human P2X2/3 receptor (P56373 whole entry): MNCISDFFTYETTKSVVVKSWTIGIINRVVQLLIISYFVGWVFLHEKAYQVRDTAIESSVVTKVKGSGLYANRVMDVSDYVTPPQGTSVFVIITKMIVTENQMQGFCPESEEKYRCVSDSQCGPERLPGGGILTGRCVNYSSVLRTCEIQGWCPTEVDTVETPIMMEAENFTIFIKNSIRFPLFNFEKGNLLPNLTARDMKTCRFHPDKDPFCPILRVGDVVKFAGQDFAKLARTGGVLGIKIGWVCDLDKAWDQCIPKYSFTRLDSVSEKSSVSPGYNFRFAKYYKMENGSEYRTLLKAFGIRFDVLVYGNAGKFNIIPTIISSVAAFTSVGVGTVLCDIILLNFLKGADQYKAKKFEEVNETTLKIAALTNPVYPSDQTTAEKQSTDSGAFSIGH
Chain of human P2X2/3 receptor (Q9UBL9 whole entry): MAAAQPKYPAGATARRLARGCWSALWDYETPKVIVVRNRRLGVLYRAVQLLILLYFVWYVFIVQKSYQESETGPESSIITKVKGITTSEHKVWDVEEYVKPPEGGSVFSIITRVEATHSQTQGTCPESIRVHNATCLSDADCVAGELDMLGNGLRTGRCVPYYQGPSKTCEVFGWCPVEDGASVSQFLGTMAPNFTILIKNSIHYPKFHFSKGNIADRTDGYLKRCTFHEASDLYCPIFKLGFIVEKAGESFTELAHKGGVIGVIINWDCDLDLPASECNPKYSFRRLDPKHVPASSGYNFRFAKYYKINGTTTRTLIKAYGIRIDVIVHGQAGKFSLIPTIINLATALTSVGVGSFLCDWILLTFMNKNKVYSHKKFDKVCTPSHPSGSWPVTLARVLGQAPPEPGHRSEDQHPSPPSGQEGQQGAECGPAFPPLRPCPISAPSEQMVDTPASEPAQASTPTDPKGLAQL
Procedure, shortened: as §1

[1] = human P2X3, FLIPR calcium assay, agonist α,β-Me-ATP
[2] = human P2X2/3, FLIPR calcium assay, agonist α,β-Me-ATP, read-out: hP2X2/3 IC50

Chain of human P2X3 receptor (P56373 whole entry): as the sequence (P56373 whole entry) above

Row | SMILES | IC50 (human P2X3 receptor; [1]) | IC50 (human P2X2/3 receptor; [2]) | IC50 (human P2X3 receptor) | IC50 (human P2X2/3 receptor; hP2X2/3 IC50 (nM))
1 | Cc1cnc(-c2cc(OC[C@@H]3COCCO3)cc(C(=O)N[C@H](C)c3ccc(C(F)(F)F)nn3)c2)s1 [Example 182, 3-[(2S)-1,4-dioxan-2-ylmethoxy]-5-(5-methyl-1,3-thiazol-2-yl)-N-{(1R)-1-[6-(trifluoromethyl)pyridazin-3-yl]ethyl}benzamide] | 63 nM | 1940 nM | – | –
2 | Cc1cnc(-c2cc(O[C@@H]3CCCN(C(=O)OC(C)(C)C)C3)cc(C(=O)N[C@H](C)c3cnc(C(F)(F)F)nc3)c2)s1 [Example 190, tert-Butyl (3R)-3-[3-(5-methyl-1,3-thiazol-2-yl)-5-({(1R)-1-[2-(trifluoromethyl)pyrimidin-5-yl]ethyl}carbamoyl)phenoxy]piperidine-1-carboxylate] | 7 nM | 207 nM | – | –
3 | CC#CCOc1cc(C(=O)N[C@H](C)c2ccc(C)nn2)cc(-c2ncc(C)s2)c1 [Example 191, 3-(but-2-yn-1-yloxy)-N-[(1R)-1-(6-methylpyridazin-3-yl)ethyl]-5-(5-methyl-1,3-thiazol-2-yl) benzamide] | 61 nM | 364 nM | – | –
4 | Cc1cnc(-c2cc(O[C@@H]3CN4CCC3CC4)cc(C(=O)N[C@H](C)c3cnc(C(F)(F)F)nc3)c2)s1 [Example 192, 3-[(3S)-1-azabicyclo[2.2.2]oct-3-yloxy]-5-(5-methyl-1,3-thiazol-2-yl)-N-{(1R)-1-[2-(trifluoromethyl)pyrimidin-5-yl]ethyl} benzamide] | – | – | 12 nM | 910 nM
5 | Cc1cnc(-c2cc(OC3CCNCC3)cc(C(=O)N[C@H](C)c3ccc(C(F)(F)F)nn3)c2)s1 [Example 201, 3-(5-methyl-1,3-thiazol-2-yl)-5-(piperidin-4-yloxy)-N-{(1R)-1-[6-(trifluoromethyl)pyridazin-3-yl]ethyl}benzamide] | 16 nM | 1850 nM | – | –
6 | Cc1cnc(-c2cc(OC3CC4(CNC4)C3)cc(C(=O)N[C@H](C)c3cnc(C(F)(F)F)nc3)c2)s1 [Example 202, 3-(2-azaspiro[3.3]hept-6-yloxy)-5-(5-methyl-1,3-thiazol-2-yl)-N-{(1R)-1-[2-(trifluoromethyl)pyrimidin-5-yl]ethyl} benzamide] | 42 nM | 1710 nM | – | –
7 | Cc1cnc(-c2cc(O[C@H]3CCNC3)cc(C(=O)N[C@H](C)c3cnc(C(F)(F)F)nc3)c2)s1 [Example 203, 3-(5-methyl-1,3-thiazol-2-yl)-5-[(3S)-pyrrolidin-3-yloxy]-N-{(1R)-1-[2-(trifluoromethyl)pyrimidin-5-yl]ethyl} benzamide] | 36 nM | 1560 nM | – | –
8 | Cc1cnc(-c2cc(OC3CCNCC3F)cc(C(=O)N[C@H](C)c3cnc(C(F)(F)F)nc3)c2)s1 (stereo partly drawn) [Example 204, 3-{[3-fluoropiperidin-4-yl]oxy}-5-(5-methyl-1,3-thiazol-2-yl)-N-{(1R)-1-[2-(trifluoromethyl)pyrimidin-5-yl]ethyl} benzamide] | 7 nM | 82 nM | – | –
9 | Cc1cnc(-c2cc(OC3CC4CC3CN4C)cc(C(=O)N[C@H](C)c3cnc(C(F)(F)F)nc3)c2)s1 (stereo partly drawn) [Example 209, 3-{[2-methyl-2-azabicyclo[2.2.1]hept-5-yl]oxy}-5-(5-methyl-1,3-thiazol-2-yl)-N-{(1R)-1-[2-(trifluoromethyl)pyrimidin-5-yl]ethyl}benzamide] | 30 nM | 1470 nM | – | –
10 | Cc1cnc(-c2cc(OC3CCN(C)CC3)cc(C(=O)N[C@H](C)c3ccc(C(F)(F)F)nn3)c2)s1 [Example 210, 3-[(1-methylpiperidin-4-yl)oxy]-5-(5-methyl-1,3-thiazol-2-yl)-N-{(1R)-1-[6-(trifluoromethyl)pyridazin-3-yl]ethyl} benzamide] | 12 nM | 1010 nM | – | –
11 | Cc1cnc(-c2cc(OC3CN(C)C3)cc(C(=O)N[C@H](C)c3ccc(C(F)(F)F)nn3)c2)s1 [Example 211, 3-[(1-methylazetidin-3-yl)oxy]-5-(5-methyl-1,3-thiazol-2-yl)-N-{(1R)-1-[6-(trifluoromethyl)pyridazin-3-yl]ethyl} benzamide] | 395 nM | ≥ 10000 nM | – | –
12 | Cc1cnc(-c2cc(OC3CCN(C)CC3F)cc(C(=O)N[C@H](C)c3cnc(C(F)(F)F)nc3)c2)s1 (stereo partly drawn) [Example 212, 3-[(3-fluoro-1-methylpiperidin-4-yl)oxy]-5-(5-methyl-1,3-thiazol-2-yl)-N-{(1R)-1-[2-(trifluoromethyl)pyrimidin-5-yl]ethyl} benzamide] | 4 nM | 46 nM | – | –
13 | Cc1cnc(-c2cc(OCC3(N(C)C)CC3)cc(C(=O)N[C@H](C)c3cnc(C(F)(F)F)nc3)c2)s1 [Example 213, 3-{[1-(dimethylamino)cyclopropyl]methoxy}-5-(5-methyl-1,3-thiazol-2-yl)-N-{(1R)-1-[2-(trifluoromethyl)pyrimidin-5-yl]ethyl} benzamide] | 5 nM | 81 nM | – | –
14 | Cc1cnc(-c2cc(OC3CC4(C3)CN(C)C4)cc(C(=O)N[C@H](C)c3cnc(C(F)(F)F)nc3)c2)s1 [Example 214, 3-[(2-methyl-2-azaspiro [3.3]hept-6-yl)oxy]-5-(5-methyl-1,3-thiazol-2-yl)-N-{(1R)-1-[2-(trifluoromethyl)pyrimidin-5-yl]ethyl} benzamide] | 47 nM | 3390 nM | – | –
15 | Cc1cnc(-c2cc(OC3CCN(C)CC3)cc(C(=O)N[C@H](C)c3cnc(C(F)F)nc3)c2)s1 [Example 215] | – | 992 nM | 16 nM | –
16 | Cc1cnc(-c2cc(O[C@H]3C[C@H]4CC[C@@H](C3)N4C)cc(C(=O)N[C@H](C)c3cnc(C(F)(F)F)nc3)c2)s1 [Example 216, 3-{[(3-endo)-8-methyl-8-azabicyclo[3.2.1]oct-3-yl]oxy}-5-(5-methyl-1,3-thiazol-2-yl)-N-{(1R)-1-[2-(trifluoromethyl)pyrimidin-5-yl]ethyl} benzamide] | 14 nM | 928 nM | – | –
17 | Cc1cnc(-c2cc(O[C@@H]3C[C@H]4CC[C@@H](C3)N4C)cc(C(=O)N[C@H](C)c3cnc(C(F)(F)F)nc3)c2)s1 [Example 217, 3-{[(3-exo)-8-methyl-8-azabicyclo[3.2.1]oct-3-yl]oxy}-5-(5-methyl-1,3-thiazol-2-yl)-N-{(1R)-1-[2-(trifluoromethyl)pyrimidin-5-yl]ethyl} benzamide] | 25 nM | 1750 nM | – | –

Further lines, with some results ahead:

Row | IC50 (human P2X3 receptor; [1]) | IC50 (human P2X2/3 receptor; [2]) | SMILES | IC50 (human P2X3 receptor) | IC50 (human P2X2/3 receptor; hP2X2/3 IC50 (nM))
18 | 7 nM | 281 nM | Cc1cnc(-c2cc(O[C@@H]3CC[C@H]4[C@H]3OCCN4C)cc(C(=O)N[C@H](C)c3cnc(C(F)(F)F)nc3)c2)s1 [Example 218, 3-{[(4aS,7R, 7aR)-4-methyloctahydro-cyclopenta [b][1,4]oxazin-7-yl]oxy}-5-(5-methyl-1,3-thiazol-2-yl)-N-{(1R)-1-[2-(trifluoromethyl)pyrimidin-5-yl]ethyl} benzamide] | – | –
19 | 2 nM | 199 nM | Cc1cnc(-c2cc(O[C@H]3CC[C@H]4[C@H]3OCCN4C)cc(C(=O)N[C@H](C)c3cnc(C(F)(F)F)nc3)c2)s1 [Example 219, 3-{[(4aS,7S, 7aR)-4-methylocta-hydro-cyclopenta[b] [1,4]oxazin-7-yl]oxy}-5-(5-methyl-1,3-thiazol-2-yl)-N-{(1R)-1-[2-(trifluoromethyl)pyrimidin-5-yl]ethyl} benzamide] | – | –
20 | 9 nM | 569 nM | Cc1cnc(-c2cc(OC3CCN(C(C)C)CC3)cc(C(=O)N[C@H](C)c3ccc(C(F)(F)F)nn3)c2)s1 [Example 224, 3-(5-Methyl-1,3-thiazol-2-yl)-5-{[1-(propan-2-yl)piperidin-4-yl]oxy}-N-{(1R)-1-[6-(trifluoromethyl)pyridazin-3-yl]ethyl}benzamide] | – | –
21 | 16 nM | 1140 nM | Cc1cnc(-c2cc(O[C@H]3CCN(C(C)C)C3)cc(C(=O)N[C@H](C)c3cnc(C(F)(F)F)nc3)c2)s1 [Example 225, 3-(5-methyl-1,3-thiazol-2-yl)-5-{[(3S)-1-(propan-2-yl)pyrrolidin-3-yl]oxy}-N-{(1R)-1-[2-(trifluoromethyl)pyrimidin-5-yl]ethyl}benzamide] | – | –
22 | 6 nM | 59 nM | COC(=O)N1CCC(Oc2cc(C(=O)N[C@H](C)c3cnc(C(F)(F)F)nc3)cc(-c3ncc(C)s3)c2)CC1 [Example 226, Methyl 4-[3-(5-methyl-1,3-thiazol-2-yl)-5-({(1R)-1-[2-(trifluoromethyl)pyrimidin-5-yl]ethyl}carbamoyl)phenoxy]piperidine-1-carboxylate] | – | –
23 | 13 nM | 161 nM | CCOC(=O)N1CCC(Oc2cc(C(=O)N[C@H](C)c3cnc(C(F)(F)F)nc3)cc(-c3ncc(C)s3)c2)CC1 [Example 227, Ethyl 4-[3-(5-methyl-1,3-thiazol-2-yl)-5-({(1R)-1-[2-(trifluoromethyl)pyrimidin-5-yl]ethyl}carbamoyl)phenoxy]piperidine-1-carboxylate] | – | –
24 | 5 nM | 54 nM | CCOC(=O)N1CC[C@H](Oc2cc(C(=O)N[C@H](C)c3cnc(C(F)(F)F)nc3)cc(-c3ncc(C)s3)c2)C1 [Example 228, Ethyl (3S)-3-[3-(5-methyl-1,3-thiazol-2-yl)-5-({(1R)-1-[2-(trifluoromethyl)pyrimidin-5-yl]ethyl}carbamoyl)phenoxy]pyrrolidine-1-carboxylate] | – | –
25 | 44 nM | 2280 nM | Cc1cnc(-c2cc(OC3CN(C(C)C)C3)cc(C(=O)N[C@H](C)c3cnc(C(F)(F)F)nc3)c2)s1 [Example 229, 3-(5-Methyl-1,3-thiazol-2-yl)-5-{[1-(propan-2-yl)azetidin-3-yl]oxy}-N-{(1R)-1-[2-(trifluoromethyl)pyrimidin-5-yl]ethyl}benzamide] | – | –
26 | 13 nM | 759 nM | Cc1cnc(-c2cc(OC3CCS(=O)(=O)CC3)cc(C(=O)N[C@H](C)c3cnc(C(F)(F)F)nc3)c2)s1 [Example 232, 3-[(1,1-dioxidotetrahydro-2H-thiopyran-4-yl)oxy]-5-(5-methyl-1,3-thiazol-2-yl)-N-{(1R)-1-[2-(trifluoromethyl)pyrimidin-5-yl]ethyl}benzamide] | – | –
